How the values were obtained:
[1] = animal models (Merino et al.); cited from earlier work
[2] = Prodrug in vitro metabolism, rat plasma; assay type: in vitro ADME; conditions: 2.0 μM substrate, no cofactors, 37° C.
Protocol: (§1) The stabilities of prodrugs were evaluated in one or more in vitro systems using a variety of preparations following methods known in the art. Tissues and/or preparations were obtained from commercial sources (e.g., Pel-Freez Biologicals, Rogers, Ark., or GenTest Corporation, Woburn, Mass.). Experimental conditions used for the in vitro studies are described in Table 1. Each preparation was incubated with test compound at 37° C. for one hour. Aliquots (50 μL) were removed at 0, 30, and 60 min and quenched with 0.1% trifluoroacetic acid in acetonitrile. Samples were then centrifuged and analyzed by LC/MS/MS. Stability of prodrugs towards specific enzymes (e.g., peptidases, etc.) were also assessed in vitro by incubation with the purified enzyme: […]

[3] = Prodrug in vitro metabolism, human liver S9; assay type: in vitro ADME; conditions: Human Liver S9 (0.5 mg/mL), 2.0 μM substrate, NADPH, 37° C.
Protocol: as §1

[4] = Caco-2 homogenate S9 stability; assay type: in vitro ADME; conditions: Caco-2 S9 (0.5 mg protein per mL), 5 μM prodrug, 37° C.
Protocol: Caco-2 Homogenate S9 Stability: Caco-2 cells were grown for 21 days prior to harvesting. Culture medium was removed and cell monolayers were rinsed and scraped off into ice-cold 10 mM sodium phosphate/0.15 M potassium chloride, pH 7.4. Cells were lysed by sonication at 4° C. using a probe sonicator. Lysed cells were then transferred into 1.5 mL centrifuge vials and centrifuged at 9000 g for 20 min at 4° C. The resulting supernatant (Caco-2 cell homogenate S9 fraction) was aliquoted into 0.5 mL vials and stored at −80° C. until used.
For stability studies, prodrug (5 μM) was incubated in Caco-2 homogenate S9 fraction (0.5 mg protein per mL) for 60 min at 37° C. Concentrations of intact prodrug and released parent drug were determined at zero time and 60 minutes using LC/MS/MS.

[5] = Prodrug in vitro metabolism, rat liver S9; assay type: in vitro ADME; conditions: Rat Liver S9 (0.5 mg/mL), 2.0 μM substrate, NADPH, 37° C.
Protocol: as §1

pancreatin = assay: Pancreatin stability; assay type: in vitro ADME, porcine; conditions: 1% (w/v) pancreatin, 5 μM prodrug, pH 7.5, 37° C.
Protocol: The stabilities of prodrugs were evaluated in one or more in vitro systems using a variety of preparations following methods known in the art. Tissues and/or preparations were obtained from commercial sources (e.g., Pel-Freez Biologicals, Rogers, Ark., or GenTest Corporation, Woburn, Mass.). Experimental conditions used for the in vitro studies are described in Table 1. Each preparation was incubated with test compound at 37° C. for one hour. Aliquots (50 μL) were removed at 0, 30, and 60 min and quenched with 0.1% trifluoroacetic acid in acetonitrile. Samples were then centrifuged and analyzed by LC/MS/MS. Stability of prodrugs towards specific enzymes (e.g., peptidases, etc.) were also assessed in vitro by incubation with the purified enzyme:
Pancreatin Stability: Stability studies were conducted by incubating prodrug (5 μM) with 1% (w/v) pancreatin (Sigma, P-1625, from porcine pancreas) in 0.025 M Tris buffer containing 0.5 M NaCl (pH 7.5) at 37° C. for 60 min. The reaction was stopped by addition of 2 volumes of methanol. After centrifugation at 14,000 rpm for 10 min, the supernatant was removed and analyzed by LC/MS/MS.

[6] = Prodrug in vitro metabolism, human plasma; assay type: in vitro ADME; conditions: 2.0 μM substrate, no cofactors, 37° C.
Protocol: as §1

SMILES | Percent of Prodrug Remaining after 60 min. [2] [%] | Percent of Prodrug Remaining after 60 min. [3] [%] | Percent of Prodrug Remaining after 60 min. [4] [%] | Percent of Prodrug Remaining after 60 min. [5] [%] | Percent of Prodrug Remaining after 60 min. (pancreatin) [%] | Percent of Prodrug Remaining after 60 min. [6] [%] | absorption following administration into the colon [1]
NCC(CC(=O)O)c1ccc(Cl)cc1 (racemic) [Baclofen, (±)-4-Amino-3-(4-chlorophenyl)butanoic acid] | – | – | – | – | – | – | poorly absorbed
CC(OC(=O)NCCCP(C)(=O)O)OC(=O)C(C)C (stereo not shown) [Compound 111, 3-{[1-Isobutanoyloxyethoxy]carbonylamino}propyl Methylphosphinic Acid] | 40 | 81 | 82 | 82 | 79 | 84 | –
CC(OC(=O)NCCCP(C)(=O)O)OC(=O)C1CCCCC1 (stereo not shown) [Compound 114, 3-{[1-Cyclohexanoyloxyethoxy]carbonylamino}propyl Methylphosphinic Acid] | 98 | 43 | 82 | 51 | 24 | 97 | –
CC(C)C(=O)OC(OC(=O)NCCCP(C)(=O)O)C(C)C (stereo not shown) [Compound 194, 3-{[1-Isobutanoyloxyisobutoxy]carbonylamino}propyl Methylphosphinic Acid] | 38 | 66 | 71 | 63 | 91 | 77 | –

Further lines, with some results ahead:

Percent of Prodrug Remaining after 60 min. [2] [%] | Percent of Prodrug Remaining after 60 min. [3] [%] | Percent of Prodrug Remaining after 60 min. [4] [%] | Percent of Prodrug Remaining after 60 min. [5] [%] | Percent of Prodrug Remaining after 60 min. (pancreatin) [%] | Percent of Prodrug Remaining after 60 min. [6] [%] | SMILES | absorption following administration into the colon [1]
7 | 57 | 20 | 67 | 20 | 30 | CC(C)C(=O)OCOC(=O)NCCCP(C)(=O)O [Compound 115, 3-{[Isobutanoyloxymethoxy]carbonylamino}propyl Methylphosphinic Acid] | –
100 | 64 | 91 | 85 | 62 | 78 | CP(=O)(O)CCCNC(=O)OCOC(=O)c1ccccc1 [Compound 195, 3-{[Benzoyloxymethoxy]carbonylamino}propyl Methylphosphinic Acid] | –
